# Laboratory results as given in patent USRE48461E1, “Modulation of androgen receptor expression” (Ionis Pharmaceuticals, Inc., priority 2012, dated 2021).
# Oligonucleotides are written 5' to 3', each unit as a sugar letter and its base; * is a phosphorothioate linkage, no mark a phosphodiester; rarer units and linkages stand in square brackets, end groups in braces. Plain capitals give the bases only. k = constrained ethyl (cEt); [5mC] = 5-methylcytosine; d = 2'-deoxy (DNA)
# What was measured:
# Type in all cases: cell-based, human
# [1] = system: KLK3 mRNA; experiment: KLK3 mRNA (AR target gene) in C4-2B MR cells
# [2] = system: C4-2B MR cells; experiment: Proliferation of MDV3100-resistant C4-2B cells (CellTiter 96); details: 6 days
# Procedure, shortened: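 Antisense oligonucleotides were added to the culture medium at 0.04, 0.20, 1.00 and 5.00 μM, with a non-targeting oligonucleotide as negative control. After 6 days of treatment, proliferation was read with CellTiter 96 AQueous One. Values are percent inhibition relative to untreated cells.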
# [3] = system: AR mRNA; experiment: AR mRNA levels in LMR20 cells (with/without DHT or R1881); details: for AR mRNA levels in LMR20 cells: with or without DHT/R1881; for AR mRNA levels (% baseline value) after treatment with DHT / AR mRNA levels (% baseline value) after treatment with R1881 / AR mRNA levels (% baseline value) of cells without AR agonist treatment: LMR20 cells; for AR mRNA levels (% baseline value) after treatment with DHT: DHT 10 nM 72 hrs; for AR mRNA levels (% baseline value) after treatment with R1881: R1881 10 nM 72 hrs; for AR mRNA levels (% baseline value) of cells without AR agonist treatment: no AR agonist
# Experimental: LMR20 cells were plated at 1,500 cells per well in phenol red-free medium with CSS.
# [4] = system: VCaP cells; experiment: VCaP apoptosis (Caspase-Glo 3/7); details: complete medium, 72 hours
# Experimental: After a treatment period of 72 hours in complete medium, apoptosis of the cancer cells was measured with Caspase-Glo 3/7 assay (Promega). Results are presented in Tables 117 and 118 as percent apoptosis of the cells, relative to non-treated cells.
# [5] = system: C4-2B cells; experiment: C4-2B cell proliferation, ASO in combination with MDV3100 (Example 21); details: Homo sapiens, read-out: inhibited proliferation, MDV3100 with control oligonucleotide ISIS 549148
# Experimental: (§1) C4-2B cells were plated at 1,000 cells per well. […] ISIS 549148 was included as a negative control. […] After a treatment period of 5 days, the proliferative capacity of the cancer cells was measured with CellTiter 96® AQueous One Solution Cell Proliferation kit (Promega), following the manufacturer's instructions. […]
# [6] = system: LNCaP cells; experiment: LNCaP cell proliferation, ASO in combination with MDV3100 (Example 20); details: Homo sapiens, LNCaP, read-out: inhibited proliferation, MDV3100 with control oligonucleotide ISIS 549148
# Experimental: as §1, with “LNCaP” for “C4-2B”, “One or CellTiter-Glo®” for “One”
# [7] = system: TMPRSS2 mRNA; experiment: Time-course TMPRSS2 expression in C4-2B cells
# Experimental: C4-2B cells were plated at 1,000 cells per well in complete medium. […] ISIS 549148 was included as a negative control. […] After a treatment period of 8 hours, 24 hours, and 48 hours, AR expression was measured with primer probe set hAR-LTS00943. Results are presented in Tables 70-72 as percent expression of AR, relative to non-treated cells.
# Expression analysis of prostate-specific antigen (PSA) and TMPRSS2 were also analyzed. Results are presented in Tables 73-75 as percent inhibition of PSA expression and Tables 76-78 as percent inhibition of TMPRSS2 expression, relative to non-treated cells.
compound,measurement,setting,value
549372 (kA*kA*kG*dT*dT*dG*dT*dA*dG*dT*dA*dG*dT*k[5mC]*kG*k[5mC]) [compound 549372],Percent inhibition of KLK3 mRNA in C4-2B MR cells,[1]; 0.04 μM,17%
same,Percent inhibition of KLK3 mRNA in C4-2B MR cells,[1]; 0.20 μM,35%
same,Percent inhibition of KLK3 mRNA in C4-2B MR cells,[1]; 1.00 μM,68%
same,Percent inhibition of KLK3 mRNA in C4-2B MR cells,[1]; 5.00 μM,80%
same,Percent inhibition of C4-2B MR cell proliferation,[2]; 0.04 μM,0%
same,Percent inhibition of C4-2B MR cell proliferation,[2]; 0.20 μM,4%
same,Percent inhibition of C4-2B MR cell proliferation,[2]; 1.00 μM,25%
same,Percent inhibition of C4-2B MR cell proliferation,[2]; 5.00 μM,43%
"GTTGATTTAATGGTTG (all phosphorothioate, sugars by position not given here; further chemistry not fully specified) [ISIS 549458]",AR target gene KLK3 mRNA levels,"[1]; C4-2B MR cells, 0.04-5.00 μM",reduced target gene levels in a dose dependent manner more extensively than treatment with ISIS 554221
same,AR mRNA levels in LMR20 cells,[3],"reduced AR mRNA levels in LMR20 cells, treated with or without either AR agonist, in a dose dependent manner relative to the baseline"
same,proliferation of C4-2B MR cells,[2]; 0.04-5.00 μM,reduced proliferation of the cells in a dose dependent manner more extensively than treatment with ISIS 554221
549458 (kG*kT*kT*dG*dA*dT*dT*dT*dA*dA*dT*dG*dG*kT*kT*kG) [compound 549458],Percent inhibition of KLK3 mRNA in C4-2B MR cells,[1]; 0.04 μM,0%
same,Percent inhibition of KLK3 mRNA in C4-2B MR cells,[1]; 0.20 μM,42%
same,Percent inhibition of KLK3 mRNA in C4-2B MR cells,[1]; 1.00 μM,81%
same,Percent inhibition of KLK3 mRNA in C4-2B MR cells,[1]; 5.00 μM,92%
same,AR mRNA levels (% baseline value) after treatment with DHT,[3]; ASO 0.04 μM,91 % baseline value
same,AR mRNA levels (% baseline value) after treatment with DHT,[3]; ASO 0.20 μM,66 % baseline value
same,AR mRNA levels (% baseline value) after treatment with DHT,[3]; ASO 1.0 μM,34 % baseline value
same,AR mRNA levels (% baseline value) after treatment with DHT,[3]; ASO 5.0 μM,31 % baseline value
same,AR mRNA levels (% baseline value) after treatment with R1881,[3]; ASO 0.04 μM,88 % baseline value
same,AR mRNA levels (% baseline value) after treatment with R1881,[3]; ASO 0.20 μM,56 % baseline value
same,AR mRNA levels (% baseline value) after treatment with R1881,[3]; ASO 1.0 μM,25 % baseline value
same,AR mRNA levels (% baseline value) after treatment with R1881,[3]; ASO 5.0 μM,32 % baseline value
same,AR mRNA levels (% baseline value) of cells without AR agonist treatment,[3]; ASO 0.04 μM,101 % baseline value
same,AR mRNA levels (% baseline value) of cells without AR agonist treatment,[3]; ASO 0.20 μM,75 % baseline value
same,AR mRNA levels (% baseline value) of cells without AR agonist treatment,[3]; ASO 1.0 μM,30 % baseline value
same,AR mRNA levels (% baseline value) of cells without AR agonist treatment,[3]; ASO 5.0 μM,25 % baseline value
same,Percent inhibition of C4-2B MR cell proliferation,[2]; 0.04 μM,8%
same,Percent inhibition of C4-2B MR cell proliferation,[2]; 0.20 μM,16%
same,Percent inhibition of C4-2B MR cell proliferation,[2]; 1.00 μM,41%
same,Percent inhibition of C4-2B MR cell proliferation,[2]; 5.00 μM,56%
"CNC(=O)c1ccc(N2C(=S)N(c3ccc(C#N)c(C(F)(F)F)c3)C(=O)C2(C)C)cc1F [MDV3100, 4-(3-(4-cyano-3-(trifluoromethyl)phenyl)-5,5-dimethyl-4-oxo-2-thioxoimidazolidin-1-yl)-2-fluoro-N-methylbenzamide, reference compound]",Apoptosis (% untreated control) in VCaP cells treated with MDV-3100,[4]; 5.0 nM,528%
same,Apoptosis (% untreated control) in VCaP cells treated with MDV-3100,[4]; 0.04 μM,186%
same,Apoptosis (% untreated control) in VCaP cells treated with MDV-3100,[4]; 0.2 μM,210%
same,Apoptosis (% untreated control) in VCaP cells treated with MDV-3100,[4]; 1.0 μM,612%
same,apoptosis of VCaP cells,[4],increased apoptosis of the cells in a dose dependent compared to the control
same,inhibition at 0.08 µM,[5],0%
same,inhibition at 0.4 µM,[5],6%
same,AR mRNA levels (% baseline value) after treatment with DHT,[3]; ASO 0.04 μM,105 % baseline value
same,AR mRNA levels (% baseline value) after treatment with DHT,[3]; ASO 0.20 μM,124 % baseline value
same,AR mRNA levels (% baseline value) after treatment with DHT,[3]; ASO 1.0 μM,110 % baseline value
same,AR mRNA levels (% baseline value) after treatment with DHT,[3]; ASO 5.0 μM,143 % baseline value
same,AR mRNA levels (% baseline value) after treatment with R1881,[3]; ASO 0.04 μM,94 % baseline value
same,AR mRNA levels (% baseline value) after treatment with R1881,[3]; ASO 0.20 μM,107 % baseline value
same,AR mRNA levels (% baseline value) after treatment with R1881,[3]; ASO 1.0 μM,115 % baseline value
same,AR mRNA levels (% baseline value) of cells without AR agonist treatment,[3]; ASO 0.04 μM,106 % baseline value
same,AR mRNA levels (% baseline value) of cells without AR agonist treatment,[3]; ASO 0.20 μM,101 % baseline value
same,AR mRNA levels (% baseline value) of cells without AR agonist treatment,[3]; ASO 1.0 μM,99 % baseline value
same,AR mRNA levels (% baseline value) of cells without AR agonist treatment,[3]; ASO 5.0 μM,92 % baseline value
same,AR mRNA levels in LMR20 cells,[3],increased the levels of AR mRNA in cells treated with AR agonist
same,inhibition at 0.08 µM,[6],7%
same,Percent inhibition of TMPRSS2 expression compared to the control group in 8 hours,[7]; 0.04 μM,0%
same,Percent inhibition of TMPRSS2 expression compared to the control group in 24 hours,[7]; 0.04 μM,23%
same,Percent inhibition of TMPRSS2 expression compared to the control group in 48 hours,[7]; 0.04 μM,5%
same,Percent inhibition of TMPRSS2 expression compared to the control group in 8 hours,[7]; 0.2 μM,6%
same,Percent inhibition of TMPRSS2 expression compared to the control group in 24 hours,[7]; 0.2 μM,31%
same,Percent inhibition of TMPRSS2 expression compared to the control group in 48 hours,[7]; 0.2 μM,16%
same,Percent inhibition of TMPRSS2 expression compared to the control group in 8 hours,[7]; 1 μM,45%
same,Percent inhibition of TMPRSS2 expression compared to the control group in 24 hours,[7]; 1 μM,63%
same,Percent inhibition of TMPRSS2 expression compared to the control group in 48 hours,[7]; 1 μM,46%
same,Percent inhibition of TMPRSS2 expression compared to the control group in 8 hours,[7]; 5.0 μM,52%
same,Percent inhibition of TMPRSS2 expression compared to the control group in 24 hours,[7]; 5.0 μM,72%
same,Percent inhibition of TMPRSS2 expression compared to the control group in 48 hours,[7]; 5.0 μM,59%
same,TMPRSS2 expression,[7]; time course,also reduced downstream gene expressions but not as potently as that with the ISIS oligonucleotides
